Entries after “also recorded” stand apart in the source; their conditions may differ.
Key:
MMP cells = test: Proliferation assay (wash-off experiment) in MMP cells; assay type: cell-based, human; conditions: 10 nM 2 hours, 50 μM cisplatin 24 hours
Procedure: (§1) Cells were seeded at a density of 10×10^4 cells/well in 6-well plates in RPMI medium supplemented with 10% FBS, 100 μg/ml streptomycin and 10 μg/ml penicillin and incubated over-night at 37° C. in a humidified environment containing 5% CO2 to allow adherence. Following treatment cells were trypsinized and stained with Trypan blue. The number of cells considered viable (unstained cells) was counted in a Bürker haemocytometer within 5 minutes after staining.
(§2) Cell cultures were pretreated with Compound (I) for 1-16 hours (depending on experiment) followed by wash-off and then replenished with normal growth medium±cisplatin, pemetrexed or cisplatin/pemetrexed. Total incubation time was 24-72 hours (depending on experiment). Control cultures were maintained in normal growth medium without added drug. The number of viable cells was determined as described for the proliferation assay.
50 μM cisplatin was added to MMP cell cultures pre-treated for 2 hours with 10 nM Compound (I) (wash-off experiment). The number of viable cells at 24 hours was determined as described for the proliferation assay above. Control cultures were maintained in normal growth medium; growth medium plus Compound (I) (10 nM); and growth medium plus cisplatin (50 μM).

AKT phosphorylation [1] = test: Western blot of AKT phosphorylation in MET5A cells; assay type: cell-based; conditions: 10 nM 2 hours pre-treatment
Procedure: (§3) Cells were extracted with 1% NP-40 lysis buffer (1% NP-40, 150 mM NaCl, 50 mM Tris-HCl pH 8.5 mM EDTA, 10 mM NaF, 10 mM Na4P2O7, 0.4 mM Na3VO4) with freshly added protease inhibitors (10 μg/ml leupeptin, 4 μg/ml pepstatin and 0.1 Unit/ml aprotinin). For protein extraction from tissues, ˜100 mg of each sample were homogenized, using a Potter-Elvehjem homogenizer device, in 1% NP-40 lysis buffer. Lysates were centrifuged at 13.000×g for 10 minutes at 4° C. and the supernatants were collected and assayed for protein concentration with the Bio-Rad protein assay method.
(§4) Proteins were separated by SDS-PAGE under reducing conditions. Following SDS-PAGE, proteins were transferred to nitrocellulose, reacted with specific antibodies and then detected with peroxidase-conjugate secondary antibodies and chemioluminescent ECL reagent. Densitometric analysis was performed using the GS 250 Molecular Image (Bio-Rad).
(§5) Levels of PARP1, cleaved PARP1, AKT and phosphorylated AKT in the MET5A cell cultures at 24 hours were also determined by Western blot analysis and relative densitometry.

PARP1 cleavage [2] = test: Western blot of PARP1 cleavage in MMP cells; assay type: cell-based, human; conditions: 10 nM two hours, wash-off, 50 μM cisplatin
Procedure: as §3, §4
(§6) Levels of PARP1, cleaved PARP1, AKT and phosphorylated AKT in the MMP cell cultures at 24 hours were also determined by Western blot analysis.

H2596 cells = test: Proliferation assay in H2596 cells; assay type: cell-based; conditions: 10 nM single agent, 24 and 48 hours; very low ERβ
Procedure: as §1

AKT phosphorylation [3] = test: Western blot of AKT phosphorylation in REN cells; assay type: cell-based, human; conditions: 10 nM 2 hours pre-treatment, ± cisplatin
Procedure: as §3, §4
Levels of PARP1, cleaved PARP1, AKT and phosphorylated AKT in REN cells treated for 24 hours with cisplatin (25, 50 and 100 μM) or pre-treated 2 hours with Compound (I) (10 nM) followed by wash-off and continued growth in normal medium±cisplatin (25, 50 and 100 μM), for an additional 24 hours were also determined by Western blot analysis and relative densitometry. […] PARP1 cleavage was analysed as it is an indicator of apoptotic cell death. […]

AKT phosphorylation [4] = test: Western blot of AKT phosphorylation in MMP cells; assay type: cell-based, human; conditions: 10 nM 2 hours pre-treatment, ± 50 μM cisplatin
Procedure: as §3, §4, §6

MET5A cells = test: Proliferation assay in non-malignant mesothelial MET5A cells; assay type: cell-based
Procedure: as §1, §2

REN cells = test: Proliferation assay (Trypan blue viable cell count; wash-off and add-on experiments) in REN cells; assay type: cell-based, human
Procedure: as §1
Control cultures were maintained in normal growth medium without added drug. The number of viable cells was determined as described for the proliferation assay.
In the add-on experiments the second drug was added directly to the cell culture medium without wash-off of the first drug. […] Control cultures were maintained in normal growth medium without added drug. The number of viable cells was determined as described for the proliferation assay.

MMB cells = test: Proliferation assay in MMB cells; assay type: cell-based; conditions: 10 nM single agent, 24 and 48 hours
Procedure: as §1

PARP1 cleavage [5] = test: Western blot of PARP1 cleavage in MET5A cells; assay type: cell-based; conditions: 10 nM 2 hours pre-treatment, cisplatin 25, 50, 100 μM
Procedure: as §3, §4, §5

PARP1 cleavage [6] = test: Western blot of PARP1 cleavage in REN cells; assay type: cell-based, human
Procedure: as §3, §4
Levels of PARP1, cleaved PARP1, AKT and phosphorylated AKT in REN cells treated for 24 hours with cisplatin (25, 50 and 100 μM) or pre-treated 2 hours with Compound (I) (10 nM) followed by wash-off and continued growth in normal medium±cisplatin (25, 50 and 100 μM), for an additional 24 hours were also determined by Western blot analysis and relative densitometry. Total AKT and Tubulin staining were used for normalization. PARP1 cleavage was analysed as it is an indicator of apoptotic cell death. As increased AKT activity has been implicated in the control of proliferation, apoptosis and cisplatin resistance (Pinton G., et al, PLoS One (2012) 7:e36856), AKT activation status following different treatments was also analysed.

MSTO-211H cells = test: Proliferation assay in ERβ negative MSTO-211H cells; assay type: cell-based; conditions: 10 nM single agent, 24 and 48 hours
Procedure: as §1

## Cc1noc(C)c1-c1c(/C(N)=N/O)c2ccccc2n1-c1ccc(O)cc1 [Compound (I)]
MMP cells
  anti-proliferative effect in MMP cells, pre-treatment then cisplatin: enhanced anti-proliferative effect of cisplatin was observed; also recorded: synergistic growth inhibition compared to Compound (I) or cisplatin alone
AKT phosphorylation [1]; no cisplatin
  basal pAKT levels in MET5A control cells: no effect on basal pAKT levels
AKT phosphorylation [1]; then cisplatin
  effect on cisplatin-mediated inhibition of pAKT in MET5A cells: antagonized the cisplatin-mediated inhibition of pAKT
PARP1 cleavage [2]
  level of cleaved PARP1 in MMP cells: most significant increase in the level of cleaved PARP1
H2596 cells
  inhibition of proliferation, H2596 cells: weak response
AKT phosphorylation [3]
  AKT phosphorylation in REN cells: significantly reduced AKT phosphorylation both in the absence and in the presence of cisplatin
AKT phosphorylation [4]
  AKT phosphorylation in MMP cells: significantly reduced AKT phosphorylation both in the absence and in the presence of cisplatin
MET5A cells; 10 nM 2 hours pre-treatment, wash-off, cisplatin 25, 50, 100 μM 24 hours
  effect on cisplatin toxicity in MET5A cells: protective effect was observed when Compound (I) pre-treatment was combined with low doses of cisplatin; also recorded: diminished and/or counteracted the toxicity of cisplatin
MET5A cells; 10 nM 2 hours, wash-off, normal medium 24 hours
  MET5A cell proliferation or viability, alone: no effect on MET5A cell proliferation or viability
MET5A cells; 10 nM single agent, 24 and 48 hours, high endogenous ERβ
  inhibition of proliferation, MET5A cells: no inhibitory effect was observed
REN cells; 10 nM 2 hours, wash-off, 20 μM cisplatin for additional 24 hours
  anti-proliferative effect, pre-treatment then 20 μM cisplatin: as efficacious as 100 μM cisplatin alone
REN cells; 10 nM 2 hours, wash-off, cisplatin 100 μM and pemetrexed 22 μM for additional 24 hours
  inhibitory effect on cell growth and viability, pre-treatment then cisplatin/pemetrexed: strong synergistic inhibitory effect on cell growth and viability
REN cells; 10 nM 2 hours, wash-off, cisplatin 100 μM for additional 24 hours
  inhibitory effect on cell growth and viability, pre-treatment then cisplatin: strong synergistic inhibitory effect on cell growth and viability
REN cells; 10 nM 2 hours, wash-off, cisplatin for additional 24 hours
  anti-proliferative effect, pre-treatment then cisplatin 20-100 μM: most efficacious anti-proliferative effect was observed when Compound (I) pre-treatment was combined with the highest concentration of cisplatin (100 μM)
REN cells; 10 nM 2 hours, wash-off, pemetrexed 5-22 μM for additional 24 hours
  enhancement of anti-proliferative effect of pemetrexed: No enhanced anti-proliferative effect
REN cells; 10 nM Compound (I) added 2, 4, 8, 12 hours after start of 100 μM cisplatin, 24 hours
  synergy when cisplatin is given first (reverse order): did not result in synergistic inhibition of cell growth and viability
REN cells; 10 nM Compound (I) added after 100 μM cisplatin, 24 hours
  growth inhibition versus single agents, cisplatin given first: greater growth inhibition than cells treated with only one of the agents
REN cells; 10 nM single agent, 24 and 48 hours
  inhibition of proliferation, REN cells: significantly (p≤0.05) inhibited proliferation
REN cells; 10 nM, 2 hours exposure, total incubation 24 hours
  growth inhibitory activity after brief exposure and wash-off: significantly (p≤0.05) increased growth inhibitory activity relative to 1 hour exposure and exposures longer than 8 hours
REN cells; 100 μM cisplatin added 2, 4, 8, 12 hours after start of 10 nM Compound (I), 24 hours
  enhancement of anti-proliferative effect of cisplatin, add-on experiment: greatest inhibitory effect obtained when adding cisplatin after 2 hours of Compound (I) pre-treatment
REN cells; 0.4, 2 and 10 nM, wash-off, 24-72 hours
  concentration dependence of anti-proliferative effect after 2 hours pre-treatment: largest anti-proliferative effect was observed with the highest Compound (I) concentration used
REN cells; 2-hours pre-treatment with 0.4, 2 or 10 nM, wash-off, irrespective of concentration
  duration of inhibitory effect on REN cell proliferation: at least 24 hours
REN cells; 24 hours treatment, range 1-100 nM, versus untreated cells
  growth inhibition of REN cells: significantly (p≤0.05) reduced cell growth and viability in a dose-dependent manner
REN cells; REN cells, 24 hours, range 1-100 nM tested
  dose of highest efficacy for growth inhibition: 10 nM
REN cells; analysis of Example 4(b) results (FIG. 4F)
  isobologram analysis of combination with cisplatin: synergistic effect
MMB cells
  inhibition of proliferation, MMB cells: significantly (p≤0.05) inhibited proliferation
PARP1 cleavage [5]
  percentage of cleaved PARP1 in MET5A cells: reduced the percentage of cleaved PARP1 in cells exposed to all concentrations of cisplatin
PARP1 cleavage [6]; 10 nM 2 hours prior to cisplatin (25, 50, 100 μM) 24 hours
  appearance of cleaved PARP1, pre-treatment then cisplatin: greatest effect on the appearance of cleaved PARP1
PARP1 cleavage [6]; agent alone
  PARP1 cleavage, single agent: neither cisplatin nor Compound (I) alone resulted in significant PARP1 cleavage
MSTO-211H cells
  inhibition of proliferation, MSTO-211H cells: no response
